Experimental data: patent US20240270750A1, “IMIDAZOLE-CONTAINING INHIBITORS OF ALK2 KINASE” (BioCryst Pharmaceuticals, Inc., priority 2021, published 2024)

Target: T1, ALK2 (Homo sapiens, UniProt Q04771)
T1 construct: purchased ThermoFisher Scientific (Life Technologies)
T1 sequence (Q04771 21-509): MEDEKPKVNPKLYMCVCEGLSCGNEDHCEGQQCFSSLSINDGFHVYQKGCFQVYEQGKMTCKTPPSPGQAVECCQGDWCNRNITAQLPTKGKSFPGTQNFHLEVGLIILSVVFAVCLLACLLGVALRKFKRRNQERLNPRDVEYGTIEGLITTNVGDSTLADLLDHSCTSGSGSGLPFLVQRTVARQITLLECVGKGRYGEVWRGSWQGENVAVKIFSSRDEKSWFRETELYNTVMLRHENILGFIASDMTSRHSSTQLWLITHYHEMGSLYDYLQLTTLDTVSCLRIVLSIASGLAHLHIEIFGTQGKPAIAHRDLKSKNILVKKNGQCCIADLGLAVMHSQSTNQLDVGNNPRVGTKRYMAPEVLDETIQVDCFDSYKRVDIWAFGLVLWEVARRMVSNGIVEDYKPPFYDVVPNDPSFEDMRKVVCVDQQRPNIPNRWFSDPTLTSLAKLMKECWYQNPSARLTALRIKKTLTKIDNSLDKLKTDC
Assay: LanthaScreen Eu Kinase Binding Assay, ALK2 inhibition
Settings: 1 micromolar concentration
Method: Biochemical assays to measure the inhibitory effects of the compounds were performed by ThermoFisher Scientific (Life Technologies). ALK2 inhibition was tested using LanthaScreen™ Eu Kinase Binding Assay screening protocol.

Row | inhibition at 1 µM [%] | SMILES
1 | > 50 | COc1cc(-n2cnc(Nc3nc(C4CCN(C)C4)nc4c3cnn4C(C)C)c2)cc(OC)c1OC (centres unmarked) [Compound 101b, 1-isopropyl-6-(1-methylpyrrolidin-3-yl)-N-(1-(3,4,5-trimethoxyphenyl)-1H-imidazol-4-yl)-1H-pyrazolo[3,4-d]pyrimidin-4-amine]
2 | < 50 | COc1cc(-n2cnc(Nc3cc(C4CC4)nc4c(C(C)C)cnn34)c2)cc(OC)c1OC [Compound 110d, 5-cyclopropyl-3-isopropyl-N-(1-(3,4,5-trimethoxyphenyl)-1H-imidazol-4-yl)pyrazolo[1,5-a]pyrimidin-7-amine]
3 | > 50 | COc1cc(-n2cnc(Nc3nc(C4CC4)nc4c(C(C)C)cnn34)c2)cc(OC)c1OC [Compound 111d, 2-cyclopropyl-8-isopropyl-N-(1-(3,4,5-trimethoxyphenyl)-1H-imidazol-4-yl)pyrazolo[1,5-a][1,3,5]triazin-4-amine]
4 | > 50 | COc1cc(-n2cnc(Nc3nc(C4CC4)nc4c3cnn4C(C)(C)C)c2)cc(OC)c1OC [Compound 112d, 1-(tert-butyl)-6-cyclopropyl-N-(1-(3,4,5-trimethoxyphenyl)-1H-imidazol-4-yl)-1H-pyrazolo[3,4-d]pyrimidin-4-amine]
5 | > 50 | CCn1ncc2c(Nc3cn(-c4cc(OC)c(OC)c(OC)c4)cn3)nc(C3CC3)nc21 [Compound 113d, 6-cyclopropyl-1-ethyl-N-(1-(3,4,5-trimethoxyphenyl)-1H-imidazol-4-yl)-1H-pyrazolo[3,4-d]pyrimidin-4-amine]
6 | > 50 | COc1cc(-n2cnc(Nc3nc(C4CC4)nc4c3cnn4C)c2)cc(OC)c1OC [Compound 114e, 6-cyclopropyl-1-methyl-N-(1-(3,4,5-trimethoxyphenyl)-1H-imidazol-4-yl)-1H-pyrazolo[3,4-d]pyrimidin-4-amine]
7 | > 50 | COc1cc(-n2cnc(Nc3nc(C4CC4)nc4c3cnn4C3CC3)c2)cc(OC)c1OC [Compound 116d, 1,6-dicyclopropyl-N-(1-(3,4,5-trimethoxyphenyl)-1H-imidazol-4-yl)-1H-pyrazolo[3,4-d]pyrimidin-4-amine]
8 | > 50 | COc1cc(-n2cnc(Nc3nc(C4CC4)nc4c3cnn4CC(C)C)c2)cc(OC)c1OC [Compound 117e, 6-cyclopropyl-1-isobutyl-N-(1-(3,4,5-trimethoxyphenyl)-1H-imidazol-4-yl)-1H-pyrazolo[3,4-d]pyrimidin-4-amine]
9 | > 50 | COc1cc(-n2cnc(Nc3nc(C4CC4)nc4c3cnn4C34CC(C3)C4)c2)cc(OC)c1OC [Compound 118f, 1-(bicyclo[1.1.1]pentan-1-yl)-6-cyclopropyl-N-(1-(3,4,5-trimethoxyphenyl)-1H-imidazol-4-yl)-1H-pyrazolo[3,4-d]pyrimidin-4-amine]

The next lines start with the molecule.

Row | SMILES | inhibition at 1 µM [%]
10 | COc1cc(-n2cnc(Nc3nc(C(C)C)nc4ccc(F)cc34)c2)cc(OC)c1OC [Compound 99a, 6-fluoro-2-isopropyl-N-(1-(3,4,5-trimethoxyphenyl)-1H-imidazol-4-yl)quinazolin-4-amine] | > 50
11 | COc1cc(-n2cnc(Nc3nc(C(C)CCN(C)C)nc4c3cnn4C(C)C)c2)cc(OC)c1OC (centres unmarked) [Compound 100b, 6-(4-(dimethylamino)butan-2-yl)-1-isopropyl-N-(1-(3,4,5-trimethoxyphenyl)-1H-imidazol-4-yl)-1H-pyrazolo[3,4-d]pyrimidin-4-amine] | > 50
12 | COc1cc(-n2cnc(Nc3nc(C(C)C)nc4ncccc34)c2)cc(OC)c1OC [Compound 102e, 2-isopropyl-N-(1-(3,4,5-trimethoxyphenyl)-1H-imidazol-4-yl)pyrido[2,3-d]pyrimidin-4-amine] | > 50
13 | CCOC(=O)CC(C)c1nc(Nc2cn(-c3cc(OC)c(OC)c(OC)c3)cn2)c2cnn(C(C)C)c2n1 (centres unmarked) [Compound 103c, ethyl 3-(1-isopropyl-4-((1-(3,4,5-trimethoxyphenyl)-1H-imidazol-4-yl)amino)-1H-pyrazolo[3,4-d]pyrimidin-6-yl)butanoate] | > 50
14 | C=Cc1nc(Nc2cn(-c3cc(OC)c(OC)c(OC)c3)cn2)c2cnn(C(C)C)c2n1 [Compound 104a, 1-isopropyl-N-(1-(3,4,5-trimethoxyphenyl)-1H-imidazol-4-yl)-6-vinyl-1H-pyrazolo[3,4-d]pyrimidin-4-amine] | > 50
15 | COc1cc(-n2cnc(NC3=NC(C(C)C)=NC4C=COC34)c2)cc(OC)c1OC (centres unmarked) [Compound 105a, 2-isopropyl-N-(1-(3,4,5-trimethoxyphenyl)-1H-imidazol-4-yl)-4a,7a-dihydrofuro[3,2-d]pyrimidin-4-amine] | > 50
16 | COc1cc(-n2cnc(Nc3nc(C(C)CC(=O)O)nc4c3cnn4C(C)C)c2)cc(OC)c1OC (centres unmarked) [Compound 106a, 3-(1-isopropyl-4-((1-(3,4,5-trimethoxyphenyl)-1H-imidazol-4-yl)amino)-1H-pyrazolo[3,4-d]pyrimidin-6-yl)butanoic acid] | > 50
17 | COc1cc(-n2cnc(Nc3nc(C(C)CC(=O)NC4CC4)nc4c3cnn4C(C)C)c2)cc(OC)c1OC (centres unmarked) [Compound 107a, N-cyclopropyl-3-(1-isopropyl-4-((1-(3,4,5-trimethoxyphenyl)-1H-imidazol-4-yl)amino)-1H-pyrazolo[3,4-d]pyrimidin-6-yl)butanamide] | > 50
18 | CNC(=O)CC(C)c1nc(Nc2cn(-c3cc(OC)c(OC)c(OC)c3)cn2)c2cnn(C(C)C)c2n1 (centres unmarked) [Compound 108a, 3-(1-isopropyl-4-((1-(3,4,5-trimethoxyphenyl)-1H-imidazol-4-yl)amino)-1H-pyrazolo[3,4-d]pyrimidin-6-yl)-N-methylbutanamide] | > 50
19 | COc1cc(-n2cnc(Nc3nc(C(C)CC(=O)NCCO)nc4c3cnn4C(C)C)c2)cc(OC)c1OC (centres unmarked) [Compound 109a, N-(2-hydroxyethyl)-3-(1-isopropyl-4-((1-(3,4,5-trimethoxyphenyl)-1H-imidazol-4-yl)amino)-1H-pyrazolo[3,4-d]pyrimidin-6-yl)butanamide] | < 50
20 | COc1cc(-n2cnc(Nc3nc(C4CC4)nc4c3CCC4)c2)cc(OC)c1OC [Compound 115b, 2-cyclopropyl-N-(1-(3,4,5-trimethoxyphenyl)-1H-imidazol-4-yl)-6,7-dihydro-5H-cyclopenta[d]pyrimidin-4-amine] | > 50
21 | COc1cc(-n2cnc(Nc3nc(CC4CC4)nc4c3cnn4C(C)(C)C)c2)cc(OC)c1OC [Compound 119e, 1-(tert-butyl)-6-(cyclopropylmethyl)-N-(1-(3,4,5-trimethoxyphenyl)-1H-imidazol-4-yl)-1H-pyrazolo[3,4-d]pyrimidin-4-amine] | > 50
22 | COc1cc(-n2cnc(Nc3nc(C4CC4)nc4c3cnn4CC3CC3)c2)cc(OC)c1OC [Compound 120f, 6-cyclopropyl-1-(cyclopropylmethyl)-N-(1-(3,4,5-trimethoxyphenyl)-1H-imidazol-4-yl)-1H-pyrazolo[3,4-d]pyrimidin-4-amine] | > 50
23 | COc1cc(-n2cnc(Nc3nc(CC4CC4)nc4c3cnn4CC3CC3)c2)cc(OC)c1OC [Compound 121f, 1,6-bis(cyclopropylmethyl)-N-(1-(3,4,5-trimethoxyphenyl)-1H-imidazol-4-yl)-1H-pyrazolo[3,4-d]pyrimidin-4-amine] | > 50
